Test results published in patent US20250114359A1, “METHODS FOR […] G[…]/OR HEXOKINASE” (UNIVERSITY OF SOUTH CAROLINA, priority 2023, published 2025).

Each compound was assayed against Trypanosoma cruzi glucokinase (TcGlcK) (Trypanosoma cruzi, UniProt Q4E4E1) (assay: Determination of Ki values by type 1 and type 2 Dixon plots;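 also: compounds supplied as 10 mM DMSO stocks (100 µL format), with a non-inhibitory compound run alongside for comparison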).
Assay type: biochemical
Procedure: The inhibition constant can be determined by development of a Dixon plot (either type 1 or type 2) according to standard practice, and as utilized herein refers to the inhibitor concentration at which half maximum inhibition is determined for a 100 μL/10 mM format in DMSO.
Determination of the Ki values for inhibitors was performed by creation of both type 1 and type 2 Dixon plots. The format included 100 μL/10 mM in DMSO.

Trypanosoma cruzi glucokinase (TcGlcK), sequence (Q4E4E1 1-376): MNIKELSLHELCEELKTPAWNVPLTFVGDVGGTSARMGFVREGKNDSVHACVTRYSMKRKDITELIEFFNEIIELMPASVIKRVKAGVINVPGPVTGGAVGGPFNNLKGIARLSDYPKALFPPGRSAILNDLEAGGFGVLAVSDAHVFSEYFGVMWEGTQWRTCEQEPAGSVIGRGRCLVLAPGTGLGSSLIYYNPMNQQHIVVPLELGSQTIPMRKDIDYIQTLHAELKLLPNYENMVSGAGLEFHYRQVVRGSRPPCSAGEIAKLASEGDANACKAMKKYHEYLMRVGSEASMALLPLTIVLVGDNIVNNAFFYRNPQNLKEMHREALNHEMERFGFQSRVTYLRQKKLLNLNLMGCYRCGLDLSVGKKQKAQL

| Structure (SMILES) | Ki [µM] |
| --- | --- |
| Cc1cc2c(c(O)c1-c1c(C)cc3c(c1O)/C(=C\Nc1c(O)cc(S(=O)(=O)O)c4ccccc14)C(=O)C(O)=C3C(C)C)/C(=C/Nc1c(O)cc(S(=O)(=O)O)c3ccccc13)C(=O)C(O)=C2C(C)C [Inhibitor 29] | 9.6 |
| COc1cc(/N=C/c2c(O)c(O)c(C(C)C)c3cc(C)c(-c4c(C)cc5c(C(C)C)c(O)c(O)c(/C=N/c6ccc(C)c(OC)c6)c5c4O)c(O)c23)ccc1C (atropisomer, axis not shown) [Inhibitor 47] | 29.1 |
| Cc1cc2c(C(C)C)c(O)c(O)c(/C=N/NC(=O)C(C)C)c2c(O)c1-c1c(C)cc2c(C(C)C)c(O)c(O)c(/C=N/NC(=O)C(C)C)c2c1O [Inhibitor 6] | 30.2 |
| Cc1cc2c(C(C)C)c(O)c(O)c(/C=N/NC(=O)c3ccoc3C)c2c(O)c1-c1c(C)cc2c(C(C)C)c(O)c(O)c(/C=N/NC(=O)c3ccoc3C)c2c1O (atropisomer, axis not shown) [Inhibitor 39] | 9.16 |
| Cc1cc(C)cc(OCC(=O)C/N=C/c2c(O)c(O)c(C(C)C)c3cc(C)c(-c4c(C)cc5c(C(C)C)c(O)c(O)c(/C=N/NC(=O)COc6cc(C)cc(C)c6)c5c4O)c(O)c23)c1 [Inhibitor 3] | 60.4 |
| CC1=C(C2=C(C)C(=O)c3c(c(C=O)c(O)c(O)c3C(C)C)C2=O)C(=O)c2c(C=O)c(O)c(O)c(C(C)C)c2C1=O [Inhibitor 31] | 960 |
| Cc1cc2c(c(O)c1-c1c(C)cc3c(c1O)/C(=C/Nc1ccccc1O)C(=O)C(O)=C3C(C)C)/C(=C/Nc1ccccc1O)C(=O)C(O)=C2C(C)C (atropisomer, axis not shown) [Inhibitor 14] | 468 |
| COc1cc(NS(=O)(=O)c2ccc(N/C=C3\C(=O)C(O)=C(C(C)C)c4cc(C)c(-c5c(C)cc6c(c5O)/C(=C/Nc5ccc(S(=O)(=O)Nc7cc(OC)nc(OC)n7)cc5)C(=O)C(O)=C6C(C)C)c(O)c43)cc2)nc(OC)n1 (atropisomer, axis not shown) [Inhibitor 20] | 11.2 |
| Cc1ccc(OCC/N=C/c2c(O)c(O)c(C(C)C)c3cc(C)c(-c4c(C)cc5c(C(C)C)c(O)c(O)c(/C=N/CCOc6ccc(C)cc6)c5c4O)c(O)c23)cc1 [Inhibitor 10] | 3.4 |
| Cc1cc2c(C(C)C)c(O)c(O)c(/C=N/c3ccc4c(c3)CCN4S(C)(=O)=O)c2c(O)c1-c1c(C)cc2c(C(C)C)c(O)c(O)c(/C=N/c3ccc4c(c3)CCN4S(C)(=O)=O)c2c1O (atropisomer, axis not shown) [Inhibitor 51] | 0.8 |
| Cc1cc2c(C(C)C)c(O)c(O)c(/C=N/Nc3nnnn3-c3ccccc3)c2c(O)c1-c1c(C)cc2c(C(C)C)c(O)c(O)c(/C=N/Nc3nnnn3-c3ccccc3)c2c1O (atropisomer, axis not shown) [Inhibitor 60] | 53.3 |
| COc1cc(/C=N/c2c(C)n(C)n(-c3ccccc3)c2=O)ccc1O [Inhibitor 62] | 19.9 |
| Cc1cc2c(c(O)c1-c1c(C)cc3c(c1O)/C(=C/Nc1ccccc1C(=O)O)C(=O)C(O)=C3C(C)C)/C(=C/Nc1ccccc1C(=O)O)C(=O)C(O)=C2C(C)C (atropisomer, axis not shown) [Inhibitor 15] | 1.2 |
| Cc1cc2c(c(O)c1-c1c(C)cc3c(c1O)/C(=C\Nc1ccc(S(=O)(=O)NC(=N)N)cc1)C(=O)C(O)=C3C(C)C)/C(=C/Nc1ccc(S(=O)(=O)NC(=N)N)cc1)C(=O)C(O)=C2C(C)C [Inhibitor 16] | 1.03 |
| Cc1cc2c(c(O)c1-c1c(C)cc3c(c1O)/C(=C/NNC(=O)c1ccncc1)C(=O)C(O)=C3C(C)C)/C(=C/NNC(=O)c1ccncc1)C(=O)C(O)=C2C(C)C (atropisomer, axis not shown) [Inhibitor 26] | 213 |
| COc1ccc(CC(=O)N/N=C/c2c(O)c(O)c(C(C)C)c3cc(C)c(-c4c(C)cc5c(C(C)C)c(O)c(O)c(/C=N/NC(=O)Cc6ccc(OC)c(OC)c6)c5c4O)c(O)c23)cc1OC (atropisomer, axis not shown) [Inhibitor 55] | 41.6 |

| Structure (SMILES) | Ki [µM] |
| --- | --- |
| Cc1cc2c(c(O)c1-c1c(C)cc3c(c1O)/C(=C/NCSN)C(=O)C(O)=C3C(C)C)/C(=C/NCSN)C(=O)C(O)=C2C(C)C (atropisomer, axis not shown) [Inhibitor 85] | 30.1 |
| CC(=O)c1ccc(N/C=C2\C(=O)C(O)=C(C(C)C)c3cc(C)c(-c4c(C)cc5c(c4O)/C(=C/Nc4ccc(C(C)=O)cc4)C(=O)C(O)=C5C(C)C)c(O)c32)cc1 (atropisomer, axis not shown) [Inhibitor 19] | 10.4 |
| Cc1cc2c(c(O)c1-c1c(C)cc3c(c1O)/C(=C/Nc1ccc(S(N)(=O)=O)cc1)C(=O)C(O)=C3C(C)C)/C(=C/Nc1ccc(S(N)(=O)=O)cc1)C(=O)C(O)=C2C(C)C (atropisomer, axis not shown) [Inhibitor 25] | 74.3 |
| Cc1cc2c(C(C)C)c(O)c(O)c(/C=N/CCOc3ccc4c(c3)OCC4)c2c(O)c1-c1c(C)cc2c(C(C)C)c(O)c(O)c(/C=N/CCOc3ccc4c(c3)OCO4)c2c1O (atropisomer, axis not shown) [Inhibitor 41] | 328 |
| Cc1cc2c(C(C)C)c(O)c(O)c(/C=N/n3c(=O)[nH][nH]c3=O)c2c(O)c1-c1c(C)cc2c(C(C)C)c(O)c(O)c(/C=N/n3c(=O)[nH][nH]c3=O)c2c1O (atropisomer, axis not shown) [Inhibitor 33] | 122 |
| CCCC(CCC)/N=C/c1c(O)c(O)c(C(C)C)c2cc(C)c(-c3c(C)cc4c(C(C)C)c(O)c(O)c(/C=N/C(CCC)CCC)c4c3O)c(O)c12 (atropisomer, axis not shown) [Inhibitor 46] | 99.1 |
| O=C1NC(=S)S/C1=C/c1ccc(O)cc1 [Inhibitor 66] | 14.7 |
| Cc1cc2c(c(O)c1-c1c(C)cc3c(c1O)/C(=C/NC(C)CCc1ccco1)C(=O)C(O)=C3C(C)C)/C(=C/NC(C)CCc1ccco1)C(=O)C(O)=C2C(C)C (stereo not shown) [Inhibitor 73] | 2.03 |
| COc1ccc2ccccc2c1/C=C1\SC(=S)NC1=O [Inhibitor 69] | 12.9 |
| Cc1cc(OCC/N=C/c2c(O)c(O)c(C(C)C)c3cc(C)c(-c4c(C)cc5c(C(C)C)c(O)c(O)c(/C=N/CCOc6cc(C)c(Cl)c(C)c6Cl)c5c4O)c(O)c23)c(Cl)c(C)c1Cl (atropisomer, axis not shown) [Inhibitor 79] | 127 |
| Cc1cc2c(c(O)c1-c1c(C)cc3c(c1O)/C(=C/NCCO)C(=O)C(O)=C3C(C)C)/C(=C/NCCO)C(=O)C(O)=C2C(C)C (atropisomer, axis not shown) [Inhibitor 13] | 422 |
| Cc1ccc(O)c(/N=C/c2c(O)c(O)c(C(C)C)c3cc(C)c(-c4c(C)cc5c(C(C)C)c(O)c(O)c(/C=N/c6cc(C)ccc6O)c5c4O)c(O)c23)c1 (atropisomer, axis not shown) [Inhibitor 54] | 3.02 |
| Cc1cc(-c2ccc(N/C=C3\C(=O)C(O)=C(C(C)C)c4cc(C)c(-c5c(C)cc6c(c5O)/C(=C/Nc5ccc(-c7ccc(N)c(C)c7)cc5C)C(=O)C(O)=C6C(C)C)c(O)c43)c(C)c2)ccc1N (atropisomer, axis not shown) [Inhibitor 17] | 532 |
| Cc1cc2c(C(C)C)c(O)c(O)c(/C=N/NCc3ccccc3Cl)c2c(O)c1-c1c(C)cc2c(C(C)C)c(O)c(O)c(/C=N/NCc3ccccc3Cl)c2c1O [Inhibitor 8] | 56.3 |
| Cc1cc2c(c(O)c1-c1c(C)cc3c(c1O)/C(=C/Nc1ccc(N=Nc4ccccc4)cc1)C(=O)C(O)=C3C(C)C)/C(=C/Nc1ccc(N=Nc3ccccc3)cc1)C(=O)C(O)=C2C(C)C (atropisomer, axis not shown) [Inhibitor 18] | 45.5 |
